Experimental findings from US7598340B2, “Monoclonal antibody to a human MDR1 multidrug resistance gene product, and uses” (The Board of Trustees of the University of Illinois, priority 1992, dated 2009) are described below.

In one experiment the test system is BALB/c 3T3-1000 cells. As to the kind of experiment: Cell growth inhibition of BALB/c 3T3-1000 cells by vinblastine with mAb or verapamil. Type of experiment: cell-based, mouse. The settings on record: 350 ng/ml vinblastine.
Experiment [1] concerns BALB/c 3T3-1000 fibroblasts. The experiment in a line: Colony formation by BALB/c 3T3-1000 fibroblasts in the presence of vinblastine. Type of experiment: cell-based, mouse. The following applies: BALB/c 3T3-1000 cell line. The procedure:
The effects of antibody preparations of the invention on drug cytotoxicity may be assessed by incubating suspensions of MDR and control cells with the antibody preparation, then testing for cell growth inhibition by colony formation, plating efficiency, and/or MTT growth inhibition assay^13,16 in the absence and presence of an anti-cancer drug such as one of the vinca alkaloids. BALB/c 3T3-1000 fibroblasts are particularly suitable for plating efficiency assays and the MDR cell line K562/inf for the growth inhibition assay. The effects of antibody preparations on drug cytotoxicity may be assayed by incubating cell suspensions with a purified antibody preparation, and plating cells in microtitre plate wells for colony or growth inhibition assays in the presence of the antibody preparation.
All drugs were obtained from Sigma, except for G418 (Gibco) and taxol (gift of Dr. S. B. Horwitz). Colony formation and MTT assays for cell growth inhibition were carried out by art-recognized procedures. […]
In the system described in FIG. 3B, we examined the effects of different mAb on colony formation by BALB/c 3T3-1000 fibroblasts in the presence of vinblastine. […] Colonies were fixed with methanol or ethanol and stained with crystal violet on day 11, and scored for plating efficiency.

`COc1ccc(CCN(C)CCCC(C#N)(c2ccc(OC)c(OC)c2)C(C)C)cc1OC` (centres unmarked) [Verapamil, verapamil]: the “concentration achieving the same potentiation of vinblastine toxicity” value in the experiment on BALB/c 3T3-1000 cells amounted to 3 µM.

For `CC[C@]1(O)C[C@@H]2CN(CCc3c([nH]c4ccccc34)[C@@](C(=O)OC)(c3cc4c(cc3OC)N(C)[C@H]3[C@@](O)(C(=O)OC)[C@H](OC(C)=O)[C@]5(CC)C=CCN6CC[C@]43[C@@H]65)C2)C1` [vinblastine], the ID90 of vinblastine in experiment [1] turned out to be 0.35 mg/L.
